Assay results reported in patent US20250171462A1 (NICO Therapeutics, Inc., priority 2022, published 2025).
Where two headings read alike, the source gives them in different places.

Target: T1, full-length SARM1 (FL-SARM1) (Homo sapiens, UniProt Q6SZW1)
T1 sequence (Q6SZW1 28-724): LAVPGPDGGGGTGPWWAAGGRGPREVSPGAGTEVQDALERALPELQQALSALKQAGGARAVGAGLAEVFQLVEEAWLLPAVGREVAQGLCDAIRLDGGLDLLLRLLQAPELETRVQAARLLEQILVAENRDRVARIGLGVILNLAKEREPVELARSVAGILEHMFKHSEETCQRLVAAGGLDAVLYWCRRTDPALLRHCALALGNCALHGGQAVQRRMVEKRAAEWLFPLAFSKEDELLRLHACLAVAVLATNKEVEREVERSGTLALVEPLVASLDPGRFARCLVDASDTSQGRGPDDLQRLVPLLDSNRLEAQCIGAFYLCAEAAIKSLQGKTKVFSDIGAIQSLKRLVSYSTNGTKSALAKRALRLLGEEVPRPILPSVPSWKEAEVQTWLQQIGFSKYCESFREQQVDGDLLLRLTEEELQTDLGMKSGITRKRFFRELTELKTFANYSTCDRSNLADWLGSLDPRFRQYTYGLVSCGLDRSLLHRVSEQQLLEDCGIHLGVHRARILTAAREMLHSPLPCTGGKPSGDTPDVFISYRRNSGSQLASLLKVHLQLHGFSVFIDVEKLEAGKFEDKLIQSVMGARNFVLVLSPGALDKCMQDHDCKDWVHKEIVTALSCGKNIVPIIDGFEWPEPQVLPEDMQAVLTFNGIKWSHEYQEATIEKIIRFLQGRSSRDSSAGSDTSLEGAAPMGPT
Assay: FL-SARM1 cellular lysate assay (NAD/NADH-Glo detection of remaining NAD+, NMN-activated)

[1] = Activity (IC50 class), 11 point curve
[2] = Activity (μM) (IC50), 11 point curve
[3] = read-out: Activity (IC50 class), 11 point curve

| Compound | IC50 [1] | IC50 [2] | IC50 [3] |
| --- | --- | --- | --- |
| CC(C)c1ccc(NC(=O)[C@@H]2CC2(F)F)cc1-c1ccccn1 [Example 151, (1S)-2,2-difluoro-N-(4-propan-2-yl-3-pyridin-2-ylphenyl)cyclopropane-1-carboxamide] | 1 to 10 µM | 4.2 µM |  |
| Cc1ccc(NC(=O)N2C3CCCC2C3)cc1-c1ccc(C(F)(F)F)nn1 [Example 61, N-(4-methyl-3-(6-(trifluoromethyl)pyridazine-3-yl)phenyl)-6-azabicyclo[3.1.1]heptane-6-carboxamide] | > 10 µM | 11 µM |  |
| Cc1ccc(NC(=O)N2C3CCCCC2C3)cc1-c1ccccn1 [Example 23, N-(4-methyl-3-(pyridin-2-yl)phenyl)-7-azabicyclo[4.1.1]octane-7-carboxamide] |  | 0.04 µM | 0.0001 to 1 µM |
| Cc1ccc(NC(=O)N2CCOc3ccccc3C2)cc1-c1ccccn1 [Example 102, N-(4-methyl-3-pyridin-2-ylphenyl)-3,5-dihydro-2H-1,4-benzoxazepine-4-carboxamide] |  | 0.9 µM | 0.0001 to 1 µM |
| Cc1cc(F)c(NC(=O)[C@@H]2CC2(F)F)cc1-c1ccccn1 (stereo in doubt) [Example 143, 2,2-difluoro-N-(2-fluoro-4-methyl-5-pyridin-2-ylphenyl)cyclopropane-1-carboxamide] | 1 to 10 µM | 1.8 µM |  |
| COCC12CC(C)CC(C1)N2C(=O)Nc1cc(-c2ncccn2)c(C)cc1F (single isomer, unassigned) [Example 199, trans-N-(2-fluoro-4-methyl-5-pyrimidin-2-ylphenyl)-1-(methoxymethyl)-3-methyl-6-azabicyclo[3.1.1]heptane-6-carboxamide] | 1 to 10 µM | 4.3 µM |  |
| Cc1ccc(NC(=O)N2CCC[C@H]2c2ccccc2)cc1-c1ccccn1 [Example 96, (2S)-N-(4-methyl-3-pyridin-2-ylphenyl)-2-phenylpyrrolidine-1-carboxamide] |  | 0.7 µM | 0.0001 to 1 µM |
| O=C(Nc1ccc(C(F)(F)F)c(-c2ccc(F)cn2)c1)N1C2CCCC1C2 [Example 56, N-(3-(5-fluoropyridin-2-yl)-4-(trifluoromethyl)phenyl)-6-azabicyclo[3.1.1]heptane-6-carboxamide] | 1 to 10 µM | 2.2 µM |  |
| Cc1ccc(NC(=O)N2[C@@H]3C[C@@H](C)C[C@@]2(COC(F)F)C3)cc1-c1ncc(F)cn1 (racemic) [Example 227, cis-1-(difluoromethoxymethyl)-N-[3-(5-fluoropyrimidin-2-yl)-4-methylphenyl]-3-methyl-6-azabicyclo[3.1.1]heptane-6-carboxamide] |  | 0.02 µM | 0.0001 to 1 µM |
| Cc1ccc(NC(=O)C2C3CCC2CC3)cc1-c1ncccn1 (centres unmarked) [Example 106, N-(4-methyl-3-pyrimidin-2-ylphenyl)bicyclo[2.2.1]heptane-7-carboxamide] | 1 to 10 µM | 1 µM |  |
| Cc1ccc(NC(=O)N2CCCC2c2nccn2C)cc1-c1ccccn1 (racemic) [Example 93, 2-(1-methylimidazol-2-yl)-N-(4-methyl-3-pyridin-2-ylphenyl)pyrrolidine-1-carboxamide] | > 10 µM | 21 µM |  |
| Cc1ccc(NC(=O)C2CCC(=O)N2c2ccccn2)cc1-c1ncc(F)cn1 (racemic) [Example 278, N-[3-(5-fluoropyrimidin-2-yl)-4-methylphenyl]-5-oxo-1-pyridin-2-ylpyrrolidine-2-carboxamide] | > 10 µM | 17 µM |  |
| Cc1ccc(NC(=O)N2CC3CCC2c2ccccc23)cc1-c1ccccn1 (centres unmarked) [Example 16, N-(4-methyl-3-(pyridin-2-yl)phenyl)-1,2,3,4-tetrahydro-1,4-(epiminomethano)naphthalene-10-carboxamide] | 1 to 10 µM | 1.1 µM |  |
| Cc1ccc(NC(=O)N2C3CCCC2C3)cc1-c1ncc(F)cn1 [Example 55, N-(3-(5-fluoropyrimidin-2-yl)-4-methylphenyl)-6-azabicyclo[3.1.1]heptane-6-carboxamide] |  | 0.2 µM | 0.0001 to 1 µM |
| CC[C@H]1C[C@@H]1C(=O)Nc1ccc(C)c(-c2ccccn2)c1 (single isomer, unassigned) [Example 107, trans-2-ethyl-N-(4-methyl-3-pyridin-2-ylphenyl)cyclopropane-1-carboxamide] | > 10 µM | 18 µM |  |
| Cc1ccc(NC(=O)[C@@H]2CC2(F)F)cc1-c1ncccc1C [Example 156, (1S)-2,2-difluoro-N-[4-methyl-3-(3-methylpyridin-2-yl)phenyl]cyclopropane-1-carboxamide] | 1 to 10 µM | 2.5 µM |  |

| Compound | IC50 [1] | IC50 [2] | IC50 [3] |
| --- | --- | --- | --- |
| COC(C)[C@@]12CC(C[C@@H](C)C1)N2C(=O)Nc1ccc(C(F)(F)F)c(-c2nccnn2)c1 (single isomer, unassigned) [Example 209, cis-N-(3-(1,2,4-triazin-3-yl)-4-(trifluoromethyl)phenyl)-1-(1-methoxyethyl)-3-methyl-6-azabicyclo[3.1.1]heptane-6-carboxamide] |  | 0.5 µM | 0.0001 to 1 µM |
| CNC(=O)CC12CC(C)CC(C1)N2C(=O)Nc1ccc(C)c(-c2ncc(F)cn2)c1 (centres unmarked) [Example 305, N-(3-(5-fluoropyrimidin-2-yl)-4-methylphenyl)-3-methyl-1-(2-(methylamino)-2-oxoethyl)-6-azabicyclo[3.1.1]heptane-6-carboxamide] |  | 0.01 µM | 0.0001 to 1 µM |
| Cc1ccc(NC(=O)N2CC(C)C2)cc1-c1ncc(F)cn1 [Example 232, N-[3-(5-fluoropyrimidin-2-yl)-4-methylphenyl]-3-methylazetidine-1-carboxamide] | > 10 µM | 20 µM |  |
| Cc1ccc(NC(=O)[C@@H]2CC2(F)F)cc1-c1ccc(C#N)cn1 [Example 158, (1S)-N-[3-(5-cyanopyridin-2-yl)-4-methylphenyl]-2,2-difluorocyclopropane-1-carboxamide] | > 10 µM | 37 µM |  |
| Cc1ccc(NC(=O)OCCc2ccccc2)cc1-c1ncccn1 [Example 178, Phenethyl(4-methyl-3-(pyrimidin-2-yl)phenyl)carbamate] | 1 to 10 µM | 4.3 µM |  |
| Cc1ccc(NC(=O)[C@H]2CC[C@@H](C(F)(F)F)N2c2ccccn2)cc1-c1ncc(F)cn1 [Example 276, (2R,5S)-N-[3-(5-fluoropyrimidin-2-yl)-4-methylphenyl]-1-pyridin-2-yl-5-(trifluoromethyl) pyrrolidine-2-carboxamide] | 1 to 10 µM | 6.3 µM |  |
| Cc1ccc(NC(=O)[C@H]2C[C@@H](C3CC3)C2)cc1-c1ccccn1 (single isomer, unassigned) [Example 122, cis-3-cyclopropyl-N-(4-methyl-3-pyridin-2-ylphenyl)cyclobutane-1-carboxamide] |  | 0.3 µM | 0.0001 to 1 µM |
| Cc1ccc(NC(=O)C2CCC3(CC3)CN2c2ccccn2)cc1-c1ncc(F)cn1 (racemic) [Example 314] | 1 to 10 µM | 1.2 µM |  |
| Cc1ccc(NC(=O)[C@@H]2C[C@H]3C[C@H]32)cc1-c1ccccn1 (racemic) [Example 116, trans-N-(4-methyl-3-pyridin-2-ylphenyl)bicyclo[2.1.0]pentane-2-carboxamide] | 1 to 10 µM | 7.4 µM |  |
| COC(C)[C@@]12CC(C[C@@H](C)C1)N2C(=O)Nc1ccc(C)c(-c2ncc(F)cn2)c1 (single isomer, unassigned) [Example 192, cis-N-(3-(5-fluoropyrimidin-2-yl)-4-methylphenyl)-1-(−1-methoxyethyl)-3-methyl-6-azabicyclo[3.1.1]heptane-6-carboxamide] | 1 to 10 µM | 1 µM |  |
| O=C(Nc1cccc(-c2ccccn2)c1)[C@@H]1CC1(F)F [Example 131, (1S)-2,2-difluoro-N-(3-pyridin-2-ylphenyl)cyclopropane-1-carboxamide] | > 10 µM | 18 µM |  |
| Cc1ccc(NC(=O)N2C3CC2C(=O)N(C)C3)cc1-c1ccccn1 (centres unmarked) [Example 22, 3-methyl-N-(4-methyl-3-(pyridin-2-yl)phenyl)-2-oxo-3,6-diazabicyclo[3.1.1]heptane-6-carboxamide] | 1 to 10 µM | 2 µM |  |
| O=C(Nc1ccc(C(F)(F)F)c(-c2ncc(F)cn2)c1)N1C2CCCCC1C2 [Example 311, N-(3-(5-fluoropyrimidin-2-yl)-4-(trifluoromethyl)phenyl)-7-azabicyclo[4.1.1]octane-7-carboxamide] |  | 0.1 µM | 0.0001 to 1 µM |
| COC(=O)[C@@H]1CC[C@@H]2C[C@H]1N2C(=O)Nc1ccc(C)c(-c2ccccn2)c1 (racemic) [Example 70, cis-methyl-6-((4-methyl-3-(pyridin-2-yl)phenyl)carbamoyl)-6-azabicyclo[3.1.1]heptane-2-carboxylate] | 1 to 10 µM | 1.9 µM |  |
| COCCOCc1ccnc(-c2cc(NC(=O)N3[C@@H]4C[C@@H](C)C[C@H]3C4)ccc2C)n1 [Example 243, cis-N-[3-[4-(2-methoxyethoxymethyl)pyrimidin-2-yl]-4-methylphenyl]-3-methyl-6-azabicyclo[3.1.1]heptane-6-carboxamide] | 1 to 10 µM | 1.1 µM |  |
